These results are taken from patent US20230310445A1, “LOX ENZYME INHIBITING METHODS AND COMPOSITIONS” (ANOVIA BIOSCIENCES, INC., priority 2020, published 2023).

Structures are written as SMILES. Like-named read-outs stand apart in the source and are kept apart here.

The series can be described thus: PK study following IV and PO administration in male CD1 mice. The series is classed as in vivo, mouse. The conditions noted are these: for AUClast/D / CIobs / AUC(0-inf) / AUC(0-t) / C0 / half-life / MRT inf / Vd / Cmax / Tmax: plasma, mean of three mice; for CIobs: unit assumed; for F: PO 50 mg/kg versus IV 10 mg/kg; for AUC(0-inf) / AUC(0-t) / C0 / half-life / MRT inf / Vd / Cmax / Tmax: mouse; for MRT inf: read-out: MRTInf—obs; for Vd: read-out: Vss—obs. Further details: AUClast/D: unit: (ng*h/mL)/(mg/kg). The protocol:
The objective of this study was to determine the pharmacokinetic (PK) profile of LOX enzyme inhibiting compounds following IV and PO administrations in male CD1 mice.
Male CDT mice from a qualified provider were used for all studies. Mice were 6-8 weeks old at the time of the experiment (˜20-30 g body weight). All animals for IV & PO administration were fasted overnight and fed after 4 hours collection. The dose formulation was kept at room temperature no more than 2 hours.
Dose formulations were prepared fresh on the day of dosing and stored at ambient temperature. Dose formulations were as following: […]
Blood samples were collected from the dorsal metatarsal vein. Circa 0.03 mL were collected per time point and 0.3 mL at final time point via heart puncture. The blood samples were centrifuged at 4000 g for 5 minutes at 4° C. to obtain plasma and samples were immediately frozen in the upright position and stored at −75±15° C. prior to analysis.
Blood samples were collected at time points outlined in Table 12:
Acceptable time ranges for blood collection were as following: 5 min and 15 min: within +0.25 minute, 30 min, 1 hour, and 2 hours: within +2 minutes; 4 hours, 6 hours, 8 hours, and 24 hours: within +10 minutes.
Concentrations of LOX enzyme inhibiting compounds in the plasma were analyzed using a LC-MS/MS method. WinNonlin (Phoenix™, version 8.2) software was used for pharmacokinetic calculations. The following pharmacokinetic parameters were calculated, whenever possible from the plasma concentration versus time data:
IV administration: T1/2, C0, AUClast, AUCinf, MRTinf, Cl, Vss, Number of Points for Regression.
PO administration: T1/2, Cmax, Tmax, AUClast, AUCinf and F. Number of Points for Regression.
The pharmacokinetic data were described using descriptive statistics such as mean, standard deviation.
Results are outlined in Table 13 (IV), Table 14 (PO) and FIGS. 1-3. Data represent mean values from three mice.

`CN(C)C(=O)N1C[C@@H](c2ccccc2)C[C@@H](S(=O)(=O)c2cccc(CN)c2)C1.O=C(O)C(F)(F)F` (racemic) [Example 74, cis-3-((3-(Aminomethyl)phenyl)sulfonyl)-N,N-dimethyl-5-phenylpiperidine-1-carboxamide 2,2,2-trifluoroacetate] yielded an F of 90. Under “IV, 10 mg/kg”, this compound had an AUClast/D of 196, a CIobs of 85.5 mL/min/kg, an AUC(0-inf) of 1970 ng·h/mL and an exposure AUC(0-t) of 1960 ng·h/mL. For the same compound, for the setting “IV, 10 mg/kg”, the C0 turned out to be 3590 ng/mL, the half-life is 53.4 min, the MRT inf was determined as 41.5 min and the Vd was 3.55 L/kg. Where the note is “PO, 50 mg/kg”, this compound gave an AUClast/D of 138, a total exposure AUC(0-inf) of 8860 ng·h/mL, an area under the curve AUC(0-t) of 8850 ng·h/mL and a Cmax of 5550 ng/mL. Also, where the note is “PO, 50 mg/kg”, the time of peak concentration (Tmax) came to 25 min, the half-life is 49.3 min and the MRT inf was found to be 74.4 min.
`NCc1ccnc(S(=O)(=O)N2C[C@@H](C(=O)N3CCS(=O)(=O)CC3)C[C@@H](C3CCCCC3)C2)c1.O=C(O)C(F)(F)F` (racemic) [Example 146, cis-(1-((4-(Aminomethyl)pyridin-2-yl)sulfonyl)-5-cyclohexylpiperidin-3-yl)(1,1-dioxidothiomorpholino)methanone 2,2,2-trifluoroacetate]: the F stood at 7.2. Under “IV, 10 mg/kg”, this compound yielded an AUClast/D of 164, a CIobs of 103 mL/min/kg, an AUC(0-inf) of 1650 ng·h/mL and an area under the curve AUC(0-t) of 1640 ng·h/mL. Under “IV, 10 mg/kg”, the C0 was 6150 ng/mL, the half-life was 287 min, the MRT inf turned out to be 51 min and the Vd turned out to be 5.12 L/kg. For the setting “PO, 50 mg/kg”, this compound came in with an AUClast/D of 11.3, an AUC(0-inf) of 590 ng·h/mL, an area under the curve AUC(0-t) of 563 ng·h/mL and a maximum concentration (Cmax) of 503 ng/mL. For the same compound, for the setting “PO, 50 mg/kg”, the Tmax amounted to 15 min, the half-life was 337 min and the MRT inf is 221 min.
